In patent publication US8039603B2, “Nucleic acid and corresponding protein entitled 121P1F1 useful in treatment and detection of cancer” (Agensys, Inc., priority 2001, dated 2011):

Test system: LAPC-4 cells
Assay: Androgen regulation of 121P1F1 in vitro (Northern blot)
Type: cell-based, human
Settings: LAPC-4 cells in charcoal-stripped medium
Description: FIG. 22. Androgen regulation of 121P1F1 in vitro. […] cells were grown in charcoal-stripped medium and stimulated with the synthetic androgen mibolerone, for either 14 or 24 hours. Northern blot was performed with 10 μg of total RNA for each sample, and probed with the 121P1F1 SSH fragment. A picture of the ethidium-bromide staining of the RNA gel is also presented (lowest panel). Hybridization of the same northern blot with the androgen-dependent gene TMPRSS2 confirms the quality of the androgen deprivation.
Since 121P1F1 was derived from a […] LAPC-9 AD (28 days post-castration) subtraction, an assay was performed for androgen regulation of 121P1F1 (FIG. 22). LAPC-4 cells were grown in charcoal-stripped medium and stimulated with the synthetic androgen mibolerone, for either 14 or 24 hours. It was shown that the expression of 121P1F1 went down in absence of normal serum, and is modulated in presence of mibolerone, 24 hours after stimulation. The experimental samples were confirmed by testing for the expression of the androgen-regulated prostate cancer gene TMPRSS2.

In the case of `C[C@@H]1CC2=CC(=O)CC[C@@H]2[C@H]2CC[C@@]3(C)[C@@H](CC[C@]3(C)O)[C@@H]21` [mibolerone], the “expression of 121P1F1” value (24 hours after stimulation) is reported as “modulated” and the TMPRSS2 expression (at 14 and 24 hours) is reported as “induced”.
